Test results reported in patent publication US11572590B2, “Methods for evaluating tumor cell spheroids using 3D microfluidic cell culture device” (Dana-Farber Cancer Institute, Inc., priority 2017, dated 2023).
Read-outs that look alike come from different tables or passages of the source.

Assays:
Test in all cases: SelectScreen Kinase Profiling, single point inhibition and IC50 for off-target kinases
Type in all cases: biochemical
off-target kinases [1] = biological target: off-target kinases (Homo sapiens, UniProt O60674, V617F); details: JAK2 JH1 JH2 V617F, ATP Km app, ZLYTE
off-target kinases (Homo sapiens, UniProt O60674, V617F), sequence (O60674 whole entry V617F): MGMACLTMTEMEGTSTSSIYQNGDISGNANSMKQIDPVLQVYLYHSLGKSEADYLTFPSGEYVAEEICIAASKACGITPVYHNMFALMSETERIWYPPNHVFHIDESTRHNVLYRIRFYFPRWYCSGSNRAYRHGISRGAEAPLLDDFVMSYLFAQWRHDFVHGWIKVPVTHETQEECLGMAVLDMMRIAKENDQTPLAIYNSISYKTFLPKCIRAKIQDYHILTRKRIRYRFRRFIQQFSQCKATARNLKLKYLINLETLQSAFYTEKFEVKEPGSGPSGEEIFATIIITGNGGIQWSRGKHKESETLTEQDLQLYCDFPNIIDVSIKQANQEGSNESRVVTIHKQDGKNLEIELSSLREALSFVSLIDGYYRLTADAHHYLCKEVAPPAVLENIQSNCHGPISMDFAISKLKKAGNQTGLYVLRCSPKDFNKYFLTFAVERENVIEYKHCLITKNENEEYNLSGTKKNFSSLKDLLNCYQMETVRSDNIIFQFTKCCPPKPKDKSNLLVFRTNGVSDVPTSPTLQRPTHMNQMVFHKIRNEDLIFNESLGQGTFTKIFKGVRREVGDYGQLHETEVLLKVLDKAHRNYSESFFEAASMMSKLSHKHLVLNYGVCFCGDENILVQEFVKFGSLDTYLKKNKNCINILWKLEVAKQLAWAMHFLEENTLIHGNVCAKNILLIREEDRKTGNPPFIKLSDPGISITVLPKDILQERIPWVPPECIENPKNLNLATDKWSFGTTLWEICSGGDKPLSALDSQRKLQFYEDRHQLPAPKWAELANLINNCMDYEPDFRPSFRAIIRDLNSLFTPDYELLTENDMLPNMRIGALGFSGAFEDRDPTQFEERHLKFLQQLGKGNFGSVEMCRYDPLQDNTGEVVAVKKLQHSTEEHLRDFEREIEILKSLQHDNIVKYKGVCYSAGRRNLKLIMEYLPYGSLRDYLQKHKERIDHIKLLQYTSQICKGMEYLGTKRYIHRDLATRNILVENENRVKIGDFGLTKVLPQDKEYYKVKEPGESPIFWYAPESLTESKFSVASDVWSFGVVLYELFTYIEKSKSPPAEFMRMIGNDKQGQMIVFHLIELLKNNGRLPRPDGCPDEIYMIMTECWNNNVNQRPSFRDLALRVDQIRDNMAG

off-target kinases [2] = biological target: off-target kinases (Homo sapiens, UniProt P10721, D816H); details: KIT D816H, LanthaScreen Binding
off-target kinases (Homo sapiens, UniProt P10721, D816H), sequence (P10721 26-976 D816H): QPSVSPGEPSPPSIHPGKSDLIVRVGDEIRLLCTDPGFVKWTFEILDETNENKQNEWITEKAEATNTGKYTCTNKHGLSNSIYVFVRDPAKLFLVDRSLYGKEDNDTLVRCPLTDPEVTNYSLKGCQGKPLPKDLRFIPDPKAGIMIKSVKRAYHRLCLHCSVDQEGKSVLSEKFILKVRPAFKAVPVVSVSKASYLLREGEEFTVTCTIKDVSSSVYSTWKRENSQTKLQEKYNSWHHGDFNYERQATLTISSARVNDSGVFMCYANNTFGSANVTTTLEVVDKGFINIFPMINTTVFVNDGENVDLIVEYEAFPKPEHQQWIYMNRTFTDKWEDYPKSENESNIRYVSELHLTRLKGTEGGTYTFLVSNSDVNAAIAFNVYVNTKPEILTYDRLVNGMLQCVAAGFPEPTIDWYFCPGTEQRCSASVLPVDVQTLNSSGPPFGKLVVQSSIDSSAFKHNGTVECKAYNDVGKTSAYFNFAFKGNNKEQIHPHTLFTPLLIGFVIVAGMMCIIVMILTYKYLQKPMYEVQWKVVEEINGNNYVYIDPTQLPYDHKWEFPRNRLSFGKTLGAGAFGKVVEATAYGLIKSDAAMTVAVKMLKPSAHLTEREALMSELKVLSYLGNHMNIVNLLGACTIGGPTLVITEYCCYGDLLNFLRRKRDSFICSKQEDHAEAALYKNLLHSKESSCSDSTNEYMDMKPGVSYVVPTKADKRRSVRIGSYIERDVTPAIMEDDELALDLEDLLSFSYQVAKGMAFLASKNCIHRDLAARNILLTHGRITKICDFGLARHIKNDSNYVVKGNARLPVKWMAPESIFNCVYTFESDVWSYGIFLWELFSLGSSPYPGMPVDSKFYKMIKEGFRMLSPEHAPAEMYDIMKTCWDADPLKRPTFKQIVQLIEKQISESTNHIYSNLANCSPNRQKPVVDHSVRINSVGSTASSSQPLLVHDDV

off-target kinases [3] = biological target: off-target kinases (Homo sapiens, UniProt P10721, T670E); details: KIT T670E (mutant), LanthaScreen Binding
off-target kinases (Homo sapiens, UniProt P10721, T670E), sequence (P10721 26-976 T670E): as the sequence (P10721 26-976 D816H) above, with T645E, H791D counted along it

off-target kinases [4] = biological target: off-target kinases (Homo sapiens, UniProt P16234, V561D); details: PDGFRA V561D, ATP Km app, ZLYTE
off-target kinases (Homo sapiens, UniProt P16234, V561D), sequence (P16234 24-1089 V561D): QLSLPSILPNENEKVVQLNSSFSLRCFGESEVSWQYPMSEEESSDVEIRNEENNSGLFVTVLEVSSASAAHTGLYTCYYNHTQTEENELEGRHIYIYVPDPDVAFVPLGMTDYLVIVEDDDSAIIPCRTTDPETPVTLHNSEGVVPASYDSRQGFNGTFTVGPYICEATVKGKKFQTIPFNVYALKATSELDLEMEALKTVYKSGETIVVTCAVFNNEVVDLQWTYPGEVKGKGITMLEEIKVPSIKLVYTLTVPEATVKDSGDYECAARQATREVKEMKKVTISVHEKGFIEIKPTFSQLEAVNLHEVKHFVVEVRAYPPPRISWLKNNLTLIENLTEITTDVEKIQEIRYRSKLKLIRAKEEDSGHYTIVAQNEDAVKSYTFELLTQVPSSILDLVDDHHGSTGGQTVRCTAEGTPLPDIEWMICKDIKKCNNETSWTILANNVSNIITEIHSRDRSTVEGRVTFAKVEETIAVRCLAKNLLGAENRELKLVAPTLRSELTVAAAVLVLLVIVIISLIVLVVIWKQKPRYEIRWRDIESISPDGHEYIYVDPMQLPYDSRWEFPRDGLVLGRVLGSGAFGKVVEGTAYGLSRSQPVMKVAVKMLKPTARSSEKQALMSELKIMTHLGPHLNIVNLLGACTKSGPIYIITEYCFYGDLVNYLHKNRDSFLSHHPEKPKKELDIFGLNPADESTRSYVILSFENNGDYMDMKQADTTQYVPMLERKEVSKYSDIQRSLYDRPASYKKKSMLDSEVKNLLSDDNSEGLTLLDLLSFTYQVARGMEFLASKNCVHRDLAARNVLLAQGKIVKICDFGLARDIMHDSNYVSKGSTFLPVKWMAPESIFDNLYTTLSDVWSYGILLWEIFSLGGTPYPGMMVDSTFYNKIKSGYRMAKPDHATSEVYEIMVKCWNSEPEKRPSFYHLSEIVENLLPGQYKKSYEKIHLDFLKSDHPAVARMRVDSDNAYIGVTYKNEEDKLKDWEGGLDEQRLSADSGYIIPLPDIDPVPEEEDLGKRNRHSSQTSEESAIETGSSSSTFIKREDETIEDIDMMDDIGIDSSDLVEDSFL

off-target kinases [5] = biological target: off-target kinases (Homo sapiens, UniProt Q9P289); details: MST4, ZLYTE, ATP Km app
off-target kinases (Homo sapiens, UniProt Q9P289), sequence (Q9P289 whole entry): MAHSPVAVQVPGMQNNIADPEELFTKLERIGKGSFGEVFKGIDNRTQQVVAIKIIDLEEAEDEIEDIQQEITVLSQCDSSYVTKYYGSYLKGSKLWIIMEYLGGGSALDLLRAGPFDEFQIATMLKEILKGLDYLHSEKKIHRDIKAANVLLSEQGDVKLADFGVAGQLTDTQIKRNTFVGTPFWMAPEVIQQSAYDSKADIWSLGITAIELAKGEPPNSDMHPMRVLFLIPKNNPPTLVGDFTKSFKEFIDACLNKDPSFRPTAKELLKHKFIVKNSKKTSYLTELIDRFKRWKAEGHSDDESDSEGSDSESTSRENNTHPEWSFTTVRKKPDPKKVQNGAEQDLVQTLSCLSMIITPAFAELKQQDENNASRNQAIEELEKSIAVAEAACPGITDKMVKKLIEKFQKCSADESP

off-target kinases [6] = biological target: T1, off-target kinases (Homo sapiens, UniProt O15530); details: ZLYTE
T1 sequence (O15530 1-556): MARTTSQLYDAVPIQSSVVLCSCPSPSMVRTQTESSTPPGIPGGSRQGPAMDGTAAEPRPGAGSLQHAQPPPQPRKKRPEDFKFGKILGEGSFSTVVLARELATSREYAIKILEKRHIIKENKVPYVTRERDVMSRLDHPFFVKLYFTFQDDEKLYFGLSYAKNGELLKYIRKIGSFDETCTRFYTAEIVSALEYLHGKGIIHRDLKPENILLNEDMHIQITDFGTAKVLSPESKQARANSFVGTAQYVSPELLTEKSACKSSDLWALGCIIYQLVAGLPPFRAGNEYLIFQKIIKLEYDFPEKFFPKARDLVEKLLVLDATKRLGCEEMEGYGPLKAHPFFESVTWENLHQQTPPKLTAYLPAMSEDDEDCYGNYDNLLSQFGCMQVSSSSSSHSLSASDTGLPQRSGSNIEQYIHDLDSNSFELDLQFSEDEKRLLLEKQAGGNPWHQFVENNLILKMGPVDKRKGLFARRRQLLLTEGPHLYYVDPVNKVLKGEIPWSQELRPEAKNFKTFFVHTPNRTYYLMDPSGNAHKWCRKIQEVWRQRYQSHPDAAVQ

off-target kinases [7] = biological target: off-target kinases (Homo sapiens, UniProt Q9H3Y6); details: SRMS (Srm), ZLYTE, ATP Km app
off-target kinases (Homo sapiens, UniProt Q9H3Y6), sequence (Q9H3Y6 whole entry): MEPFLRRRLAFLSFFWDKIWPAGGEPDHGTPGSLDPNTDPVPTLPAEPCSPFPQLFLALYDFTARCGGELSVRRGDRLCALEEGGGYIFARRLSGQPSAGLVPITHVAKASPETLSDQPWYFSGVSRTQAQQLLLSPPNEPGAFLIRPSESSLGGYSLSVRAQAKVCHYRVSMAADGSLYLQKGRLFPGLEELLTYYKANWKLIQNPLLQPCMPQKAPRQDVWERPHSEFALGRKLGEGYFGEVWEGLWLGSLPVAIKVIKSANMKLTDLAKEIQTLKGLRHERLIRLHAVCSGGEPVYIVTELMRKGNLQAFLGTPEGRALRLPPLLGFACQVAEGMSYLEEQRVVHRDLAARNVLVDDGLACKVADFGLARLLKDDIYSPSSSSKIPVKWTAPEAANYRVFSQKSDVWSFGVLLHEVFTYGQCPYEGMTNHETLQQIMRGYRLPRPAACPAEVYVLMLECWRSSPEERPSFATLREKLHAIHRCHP

off-target kinases [8] = biological target: off-target kinases (Homo sapiens, UniProt P48729); details: CSNK1A1 (CK1 alpha 1), ZLYTE, ATP Km app
off-target kinases (Homo sapiens, UniProt P48729), sequence (P48729 whole entry): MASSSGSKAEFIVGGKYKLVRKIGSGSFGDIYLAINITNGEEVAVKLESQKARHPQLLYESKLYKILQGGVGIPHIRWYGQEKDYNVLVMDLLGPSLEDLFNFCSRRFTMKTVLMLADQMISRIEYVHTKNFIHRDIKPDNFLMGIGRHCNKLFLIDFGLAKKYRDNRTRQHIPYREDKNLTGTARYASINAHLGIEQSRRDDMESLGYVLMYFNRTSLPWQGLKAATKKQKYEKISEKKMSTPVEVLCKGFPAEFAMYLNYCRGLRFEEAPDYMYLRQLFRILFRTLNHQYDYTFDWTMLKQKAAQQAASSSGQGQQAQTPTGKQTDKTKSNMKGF

off-target kinases [9] = biological target: off-target kinases (Homo sapiens, UniProt Q96S53); details: TESK2, LanthaScreen Binding
off-target kinases [10] = biological target: off-target kinases (Homo sapiens, UniProt O00506); details: STK25 (YSK1), ZLYTE, ATP Km app
off-target kinases (Homo sapiens, UniProt O00506), sequence (O00506 whole entry): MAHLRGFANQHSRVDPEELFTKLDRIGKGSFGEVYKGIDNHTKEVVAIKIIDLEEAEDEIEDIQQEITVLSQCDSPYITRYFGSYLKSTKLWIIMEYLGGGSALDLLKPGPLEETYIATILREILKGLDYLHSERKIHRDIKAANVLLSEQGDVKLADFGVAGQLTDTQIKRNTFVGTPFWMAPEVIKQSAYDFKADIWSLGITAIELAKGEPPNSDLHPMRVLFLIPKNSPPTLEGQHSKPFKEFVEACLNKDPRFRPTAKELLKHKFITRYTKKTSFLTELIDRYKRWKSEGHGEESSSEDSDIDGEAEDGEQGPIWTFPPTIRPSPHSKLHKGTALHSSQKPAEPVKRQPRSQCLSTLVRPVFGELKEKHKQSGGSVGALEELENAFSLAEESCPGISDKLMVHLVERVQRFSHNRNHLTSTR

off-target kinases [11] = biological target: off-target kinases (Homo sapiens, UniProt Q05655); details: PRKCD (PKC delta), ZLYTE, ATP Km app

Question: `N#Cc1cc(-c2ncnc(Nc3ccc(N4CCN(C5COC5)CC4)cc3)n2)ccc1OC1CCOCC1` [Compound 1, 5-(4-((4-(4-(oxetan-3-yl)piperazin-1-yl)phenyl)amino)-1,3,5-triazin-2-yl)-2-((tetrahydro-2H-pyran-4-yl)oxy)benzonitrile] was tested. Which inhibition (off-target kinases [1]; read-out: % Inhibition 1) did it give?
Answer: 54%

Question: And the inhibition (off-target kinases [1]; read-out: % Inhibition 2)?
Answer: 50%

Question: And the inhibition (off-target kinases [1]; read-out: % Inhibition Avg)?
Answer: 52%

Question: What about the inhibition (off-target kinases [2]; read-out: % Inhibition 1) of the same molecule?
Answer: 90%

Question: What about the inhibition (off-target kinases [2]; read-out: % Inhibition 2) of the same molecule?
Answer: 94%

Question: And the inhibition (off-target kinases [2]; read-out: % Inhibition Avg)?
Answer: 92%

Question: And the inhibition (off-target kinases [3]; read-out: % Inhibition 1)?
Answer: 2%

Question: What about the inhibition (off-target kinases [3]; read-out: % Inhibition 2) of the same molecule?
Answer: 2%

Question: What about the inhibition (off-target kinases [3]; read-out: % Inhibition Avg) of the same molecule?
Answer: 2%

Question: And the inhibition (off-target kinases [4]; read-out: % Inhibition 1)?
Answer: 85%

Question: What about the inhibition (off-target kinases [4]; read-out: % Inhibition 2) of the same molecule?
Answer: 81%

Question: And the inhibition (off-target kinases [4]; read-out: % Inhibition Avg)?
Answer: 83%

Question: What about the inhibition (off-target kinases [5]; read-out: % Inhibition 1) of the same molecule?
Answer: 2%

Question: And the inhibition (off-target kinases [5]; read-out: % Inhibition 2)?
Answer: 3%

Question: What about the inhibition (off-target kinases [5]; read-out: % Inhibition Avg) of the same molecule?
Answer: 2%

Question: What about the inhibition (off-target kinases [6]; PDK1, ATP 100, read-out: % Inhibition 1) of the same molecule?
Answer: 14%

Question: And the inhibition (off-target kinases [6]; PDK1, ATP 100, read-out: % Inhibition 2)?
Answer: 16%

Question: What about the inhibition (off-target kinases [6]; PDK1, ATP 100, read-out: % Inhibition Avg) of the same molecule?
Answer: 15%

Question: What about the inhibition (off-target kinases [6]; PDK1 Direct, ATP Km app, read-out: % Inhibition 1) of the same molecule?
Answer: 85%

Question: What about the inhibition (off-target kinases [6]; PDK1 Direct, ATP Km app, read-out: % Inhibition 2) of the same molecule?
Answer: 74%

Question: And the inhibition (off-target kinases [6]; PDK1 Direct, ATP Km app, read-out: % Inhibition Avg)?
Answer: 79%

Question: What about the inhibition (off-target kinases [7]; read-out: % Inhibition 1) of the same molecule?
Answer: 5%

Question: And the inhibition (off-target kinases [7]; read-out: % Inhibition 2)?
Answer: 3%

Question: What about the inhibition (off-target kinases [7]; read-out: % Inhibition Avg) of the same molecule?
Answer: 4%

Question: What about the inhibition (off-target kinases [8]; read-out: % Inhibition 1) of the same molecule?
Answer: 2%

Question: And the inhibition (off-target kinases [8]; read-out: % Inhibition 2)?
Answer: 1%

Question: And the inhibition (off-target kinases [8]; read-out: % Inhibition Avg)?
Answer: 1%

Question: And the inhibition (off-target kinases [9]; read-out: % Inhibition 1)?
Answer: 14%

Question: What about the inhibition (off-target kinases [9]; read-out: % Inhibition 2) of the same molecule?
Answer: -3%

Question: What about the inhibition (off-target kinases [9]; read-out: % Inhibition Avg) of the same molecule?
Answer: 6%

Question: And the inhibition (off-target kinases [10]; read-out: % Inhibition 1)?
Answer: 0%

Question: What about the inhibition (off-target kinases [10]; read-out: % Inhibition 2) of the same molecule?
Answer: -4%

Question: What about the inhibition (off-target kinases [10]; read-out: % Inhibition Avg) of the same molecule?
Answer: -2%

Question: And the inhibition (off-target kinases [11]; read-out: % Inhibition 1)?
Answer: 4%

Question: And the inhibition (off-target kinases [11]; read-out: % Inhibition 2)?
Answer: -4%

Question: What about the inhibition (off-target kinases [11]; read-out: % Inhibition Avg) of the same molecule?
Answer: 0%
